Laboratory results published in patent US7169603B2, “α-MSH related compounds and methods of use” (MGI Pharma Biologics, Inc., priority 2000, dated 2007).
Square brackets hold non-standard residues; d marks the D form.

Assays:
[1] = test system: TNBS-treated mice; test: TNBS-induced Inflammatory Bowel Disease (IBD) model; assay type: in vivo; settings: intranasal administration together with TNBS
Text: Inflammatory Bowel Disease (IBD) was induced in mice by the administration of trinitrobenzenesulphonic acid (TNBS), in 40% EtOH, to the mice. […] The IBD model is described in, for example, Keates et al. (2000) Gastroenterology 119:972–82.
The administration of EtOH alone (no TNBS) caused no weight loss in the animals. The “untreated” mice were given only the TNBS administration. The aMSH(4-13) mice were given an administration of TNBS, together with an intranasal administration of the aMSH(4-13) analog, which reduced the severity of the TNBS-induced weight loss.

[2] = test system: Leptin −/− mice; test: Leptin -/- mouse model of obesity; assay type: in vivo; settings: 1 μg daily for three weeks, intranasally, intrarectally or subcutaneously; compared to untreated mice; FIG. 18A
Procedure: Leptin −/− mice were used as a model of mammalian obesity to evaluate the effectiveness of an α-MSH analog and an α-MSH encoding nucleic acid to treat the condition. […] Leptin −/− obese mice were administered (either intranasally, intrarectally, or subcutaneously) with 1 μg of the α-MSH(4-13) analog daily for three weeks.

Q: Which “survival of TNBS-treated animals” value [1] does the source give for “Ac-CEH[dF]RWCKPV-NH2 (cysteine pairing not given here) [α-MSH(4-13) analog]” here?
A: The value was “increased the survival”.

Q: And the TNBS-induced weight loss ([1]; FIG. 17A)?
A: Its TNBS-induced weight loss is “decreased the weight loss”.

Q: And the weight gain [2]?
A: The weight gain was “a decrease in weight gain”.
